From US20240024307A1, “PHARMACEUTICAL COMBINATION OF A CORTICOSTEROID AND AN ANTIHISTAMINE FOR THE TREATMENT AND CONTROL OF THE INFLAMMATORY COMPONENT OF ALLERGIC PROCESSES” (priority 2020, published 2024)

Assays:
[1] = 40° C. and 75% RH; alone or in combination with various excipients; cited from earlier work
[2] = Comparative bioavailability study, 5 mg desloratadine and 0.25 mg betamethasone alone or in combination, single dose, healthy subjects, fasting; conditions: analyte desloratadine, 5 mg single dose
Source text: The study design was crossover, 3×6×3 open, prospective, and longitudinal, truncated to single dose.
Three treatments, three periods, six sequences with an elimination period of 14 days and with a total of 24 healthy subjects of both genders, in fasting conditions.

Clc1ccc2c(c1)CCc1cccnc1C2=C1CCNCC1 [Desloratadine, desloratadine]
colour stability [1]: exhibits color changes | Elimination constant Ke [2]: 0.0408 ± 0.009 h⁻¹
